Tests used:
[1] = tested on: Panicum maximum (guineagrass, PANMA); experiment: greenhouse test of rainfastness of glyphosate formulations (Example 4); type: in vivo; conditions: 1.68 kg a.e./ha, formulation 18.4% glyphosate a.e., 7% cocoamine quat 2EO, 10.2% nonionic surfactant
Experimental: (§1) Comparative herbicidal activity with and without simulated rain was determined in greenhouse and field tests. For greenhouse tests, seeds or propagules of selected species were planted in 10.2 cm square pots of soil with added fertilizer. Temperature and relative humidity were allowed to fluctuate within limits defined for each test described in the following Examples. Plants were allowed to grow until the desired growth stage or size (defined for each test) for spraying. Pots were selected for uniformity before treatment and three replicate pots were assigned to each treatment. Spray solutions were prepared by dilution or dissolution of concentrate herbicide formulations in water. When desired to test "tank mix" application of surfactant compositions, these were added to the spray solution at the required concentration. Spraying was performed with a device which simulates agricultural field spraying equipment, delivering a fine spray at a pressure of about 207 kilopascals. Speed of travel of the spray device over the plants was adjusted to give the desired spray volume (defined for each test). For logistical reasons, all three replicates of each treatment were sprayed together. "Rain" treatments were applied by repeated passage of a coarse spray of water over the plants at some desired period of time after herbicide spraying. The amount and duration of "rain" were noted. After spraying and "rain" treatment, the plants were returned to the greenhouse. Herbicidal efficacy was evaluated by visual assessment at one or more selected time periods after treatment and recorded as "percent control" on an arbitrary scale by comparison with untreated plants. On this scale 0 means no visible effect and 100 means death of all plants. In the Examples, percent control values given are the means of three replicates.
Aqueous concentrate formulations of the isopropylamine salt of glyphosate were prepared at a glyphosate a.e. loading of 18.4% (equivalent to about 200 g a.e./liter). All contained 7% cocoamine quat 2EO and 10.2% nonionic surfactant. Formulations of the present invention contained as the nonionic one of several secondary alcohol ethoxylates; other formulations were made containing nonionics such as Silwet L-77, 2,4,7,9-tetramethyl-5-decyne-4,7-diol 10EO, nonylphenol 8EO, 10EO and 12EO and C12-15 primary alcohol 7EO, 9EO and 12EO. These formulations were tested for rainfastness in a greenhouse test.
The test species was Panicum maximum (guineagrass, PANMA). All glyphosate formulations were applied at 1.68 kg a.e./ha (1.5 lb a.e./acre) in a spray volume of 185 l/ha (20 gallons/acre). Commercial Roundup herbicide was included as a standard. Simulated rain was applied in the amount of 6 mm over a period of 15 minutes, beginning 1 hour after glyphosate treatment.

[2] = tested on: Elymus repens (quackgrass, AGRRE); experiment: greenhouse test of rainfastness of glyphosate formulations (Example 5); type: in vivo; conditions: formulation 31% glyphosate a.e., 7.5% cocoamine quat 2EO, 8.6% nonionic surfactant
Experimental: as §1
Aqueous concentrate formulations of the isopropylamine salt of glyphosate were prepared at a glyphosate a.e. loading of 31% (equivalent to about 360 g a.e./liter). All contained 7.5% cocoamine quat 2EO and 8.6% nonionic surfactant. Formulations of the present invention contained as the nonionic C11-15 secondary alcohol 9EO or C12 branched secondary alcohol 10EO; for comparison, other formulations were made containing nonionics disclosed as rainfastness aids in the prior art such as 2,4,7,9-tetramethyl-5-decyne-4,7-diol 10EO or nonylphenol 8EO. These formulations were tested for rainfastness in a greenhouse test.
The test species was Elymus repens (quackgrass, AGRRE). All glyphosate formulations were applied at both 0.84 and 1.68 kg a.e./ha (0.75 and 1.5 lb a.e./acre) in a spray volume of 20 gallons/acre (187 l/ha. Commercial Roundup herbicide was included as a standard. Simulated rain was applied in the amount of 6 mm over a period of 15 minutes, beginning 1 hour after glyphosate treatment. Data on percent inhibition without and with "rain" are presented in Table 6. Table 6

barley cv. Pennco = experiment: short-term whole plant assay, barley regrowth after glyphosate treatment and trimming (Examples 7-8); type: in vivo; conditions: T/Am 5 0, S/Al 9 0 % w/v, 7 days after treatment
Source text: In Examples 7 and 8, a short-term whole plant assay was used to evaluate relative efficacy of aqueous glyphosate compositions containing tallowamine 5EO and C11-15 secondary alcohol 9EO in different concentrations and proportions relative to one another.
Equal volumes of uniformly sized seeds (20-25 in number) of barley cv. Pennco were sown in a growing medium consisting of a 3:2:1 sand/soil/peat mixture in 4 inch square plastic pots. Pots were placed in a controlled environment growth chamber providing a 14 hour photoperiod, day and night temperatures of 78°F and 66°F respectively, and a relative humidity in the range from 30% to 50%. Light was provided by a combination of metal halide and sodium vapor lamps. All pots were bottom watered at 1200 hr on the first day, resulting in rapid saturation of the growing medium. Seedling emergence occurred on the third and fourth days. On the seventh day, all pots were fertilized by bottom watering with a Peters 20-20-20 fertilizer containing 475 ppm soluble nitrogen.
On the eighth day, pots were sorted into 6 replicate blocks according to plant size. Treatments, including no-treatment controls, were randomly assigned within each block, one treatment per pot.
Plants were treated with glyphosate compositions in rapid succession between 0830 hr and 0900 hr on the ninth day, when average plant height was 13-15 cm and the second leaf was just beginning to elongate. Compositions were applied using a calibrated single-nozzle track sprayer delivering 187 l/ha through a Teejet 8001E nozzle at 276 kilopascals. Plants were removed from the growth chamber immediately before treatment and returned to the same growth chamber immediately after treatment. Pots were spatially arranged in a randomized complete block experimental design. At 6 hours after treatment plants in all pots were trimmed by cutting to 20 mm above the top edge of the pot. This removed approximately 90% of the barley leaf area. Pots were bottom watered once daily for the remainder of the study. Data collection took place on the sixteenth day, 7 days after treatment.
Average height of barley regrowth in each pot was measured to the nearest 5 mm increment, from the earlier cutting height 20 mm above the edge of the pot. All plants in each pot were then cut at 20 mm above the edge of the pot and total fresh weight was recorded.
All compositions in this Example contained glyphosate as the isopropylamine salt at a concentration calculated to deliver 0.42 kg a.e./ha. Polyoxyethylene tallowamine 5EO (T/Am 5) concentration was varied independently of C11-15 secondary alcohol 9EO (S/Al 9) concentration as will be clear from the tables below. […]

[3] = cloud point of aqueous concentrate glyphosate formulations (Examples 2 and 3); type: physicochemical; conditions: 31% glyphosate a.e. as isopropylamine salt
Experimental: Aqueous concentrate formulations of the isopropylamine salt of glyphosate were prepared at a glyphosate a.e. loading of 31% (equivalent to about 360 g a.e./liter). All contained 3.5% cocoamine quat 2EO. Secondary alcohol ethoxylates of the invention were included at a range of levels and cloud point of the formulation was determined. To measure cloud point, a sample of each formulation in a test tube was heated in a water bath until it became cloudy. The test tube was then removed from the water bath and the sample stirred with a thermometer until it became clear. The temperature at which the sample became clear was recorded as the cloud point of the formulation.
Aqueous concentrate formulations of the isopropylamine salt of glyphosate were prepared at the same glyphosate a.e. loading as in Example 2, but containing higher levels of cocoamine quat 2EO. Secondary alcohol ethoxylates of the invention were included at a range of levels and cloud point of the formulation was determined by the same procedure as in Example 2.

[4] = Rain 6 mm over 15 minutes, 1 hour after treatment
[5] = 0.84 kg a.e./ha, Rain 6 mm over 15 minutes, 1 hour after treatment
[6] = 1.68 kg a.e./ha, Rain 6 mm over 15 minutes, 1 hour after treatment
[7] = averaged over glyphosate 0.07, 0.14 and 0.28 kg a.e./ha
[8] = 4% secondary alcohol, 3.5% cocoamine quat 2EO
[9] = 5% secondary alcohol, 3.5% cocoamine quat 2EO
[10] = 5% secondary alcohol, 5% cocoamine quat 2EO
[11] = 6% secondary alcohol, 3.5% cocoamine quat 2EO
[12] = 6% secondary alcohol, 5% cocoamine quat 2EO
[13] = 7% secondary alcohol, 3.5% cocoamine quat 2EO
[14] = 7% secondary alcohol, 5% cocoamine quat 2EO
[15] = 8% secondary alcohol, 5% cocoamine quat 2EO

| Molecule | Percent inhibition of guineagrass 15 DAT ([1]; No rain) | Percent inhibition of guineagrass 15 DAT [1, 4] | Percent inhibition of quackgrass 28 DAT ([2]; 0.84 kg a.e./ha, No rain) | Percent inhibition of quackgrass 28 DAT [2, 5] | Percent inhibition of quackgrass 28 DAT ([2]; 1.68 kg a.e./ha, No rain) | Percent inhibition of quackgrass 28 DAT [2, 6] | further results |
| --- | --- | --- | --- | --- | --- | --- | --- |
| 2,4,7,9-tetramethyl-5-decyne-4,7-diol 10EO [Adjuvant 2] | 98% | 94% | 94% | 78% | 98% | 94% | – |
| O=C(O)CNCP(=O)(O)O [glyphosate, N-phosphonomethylglycine] | – | – | – | – | – | – | Mean fresh weight of regrowth (barley cv. Pennco; [7]): 2.83 g; Mean height of regrowth (barley cv. Pennco; [7]): 171 mm; Mean fresh weight of regrowth (barley cv. Pennco; glyphosate 0.42 kg a.e./ha): 1.92 g; Mean height of regrowth (barley cv. Pennco; glyphosate 0.42 kg a.e./ha): 148 mm |
| C12 branched secondary alcohol 6EO [C12 branched 6EO] | 100% | 66% | – | – | – | – | Cloud points [3, 8]: >95 °C; Cloud points [3, 9]: >95 °C; Cloud points [3, 10]: >95 °C; Cloud points [3, 11]: <25 °C; Cloud points [3, 12]: <25 °C; Cloud points [3, 13]: <25 °C; Cloud points [3, 14]: <25 °C; Cloud points [3, 15]: <25 °C |
| C12 branched secondary alcohol 10EO [C12 branched 10EO] | 100% | 98% | 94% | 84% | 100% | 88% | Cloud points [3, 8]: >95 °C; Cloud points [3, 9]: 80 °C; Cloud points [3, 10]: 80 °C; Cloud points [3, 11]: 72 °C; Cloud points [3, 12]: 68 °C; Cloud points [3, 13]: 65 °C; Cloud points [3, 14]: 65 °C; Cloud points [3, 15]: 61 °C |
| nonylphenol 8EO | 100% | 97% | 97% | 83% | 98% | 79% | – |
| nonylphenol 10EO | 100% | 81% | – | – | – | – | – |
| nonylphenol 12EO | 100% | 63% | – | – | – | – | – |

Reference: patent EP0734206B1, “SURFACTANTS PROVIDING ENHANCED EFFICACY AND/OR RAINFASTNESS TO PESTICIDE FORMULATIONS” (MONSANTO COMPANY, priority 1993, dated 1995)
